How the values were obtained:
mouse IP3R2 = target: T1, mouse IP3R2 (Mus musculus, UniProt Q9Z329); experiment: IP3-evoked Ca^2+ release from permeabilized DT40-IP3R2 cells; type: cell-based; conditions: IP3R2
T1 construct: different for NTs (NT2 > NT1 > > NT3) and full-length IP3Rs (IP3R3 > IP3R1 ≥ IP3R2); expressed in transfected cells
Description: (§1) We used DT40 cells lacking endogenous IP3Rs (Sugawara et al., [1997]), but stably expressing rat IP3R1 (GenBank accession number GQ233032.1; Pantazaka and Taylor, [2011]), mouse IP3R2 (GU980658.1; Tovey et al., [2010]) or rat IP3R3 (GQ233031.1; Rahman et al., [2009]). Cells were grown in suspension in RPMI 1640 medium supplemented with 10% FBS, 1% heat-inactivated chicken serum, 2 mM glutamine and 50 μM 2-mercaptoethanol at 37°C in humidified air containing 5% CO2. Cells were used or passaged when they reached a density of ∼1.5 × 10^6 cells mL^−1.
(§2) A low-affinity Ca^2+ indicator trapped within the ER of permeabilized DT40 cells was used to measure IP3-evoked Ca^2+ release (Tovey et al., [2006]; Saleem et al., [2012]). Briefly, the ER was loaded with indicator by incubating cells (∼5 × 10^7 mL^−1) in the dark with Mag-fluo-4AM (20 μM) in HEPES-buffered saline (HBS) containing 0.02% (v/v) Pluronic F127 for 1 h at 22°C. HBS had the following composition: 135 mM NaCl, 5.9 mM KCl, 11.6 mM HEPES, 1.5 mM CaCl2, 11.5 mM glucose, 1.2 mM MgCl2, pH 7.3. After permeabilization of the plasma membrane with saponin (10 μg·mL^−1, 4 min, 37°C) in Ca^2+-free cytosol-like medium (CLM), permeabilized cells were washed (650× g, 2 min) and resuspended (∼10^7 mL^−1) in Mg^2+-free CLM containing carbonyl cyanide 4-(trifluoromethoxy) phenylhydrazone (FCCP, 10 μM) to inhibit mitochondria, and supplemented with CaCl2 to give a final free [Ca^2+] of 220 nM after addition of 1.5 mM MgATP. Ca^2+-free CLM had the following composition: 2 mM NaCl, 140 mM KCl, 1 mM EGTA, 20 mM PIPES, 2 mM MgCl2, pH 7.0. Permeabilized cells were then distributed into 96-well plates (50 μL, 5 × 10^5 cells per well), centrifuged (300× g, 2 min) and used for experiments at 20°C. Addition of MgATP (1.5 mM) allowed Ca^2+ uptake by the ER, which was monitored at intervals of ∼1 s using a FlexStation-3 plate reader (MDS Analytical Devices, Berkshire, UK; Tovey et al., [2006]). After 2 min, when the ER had loaded to steady-state with Ca^2+, IP3 was added with CPA (10 μM) to inhibit further Ca^2+ uptake. IP3-evoked Ca^2+ release was expressed as a fraction of that released by ionomycin (1 μM; Tovey et al., [2006]). Similar methods were used to measure IP3-evoked Ca^2+ release from intact or permeabilized HEK cells (Tovey et al., [2008]). The timings of antagonist additions are described in the figure legends. The affinity of each competitive antagonist (pKD) was determined from the intercept on the abscissa of the Schild plot.
(§3) Concentration–effect relationships were fitted to Hill equations using Prism (version 5.0, GraphPad, San Diego, CA, USA), from which Hill coefficients (h), the fraction of the intracellular Ca^2+ stores released by a maximally effective concentrations of IP3, and pEC50 values were calculated.

HEK cells [1] = experiment: Carbachol-evoked Ca^2+ signals in intact HEK cells; type: cell-based; conditions: intact HEK cells; Xestospongin 10 μM for 30 min
Description: as §2

HEK cells [2] = system: HEK cells; set-up: method as in Kurian et al., [2009]; conditions: Xestospongin C 10 μM for 30 min in Ca^2+-free medium, ref Kurian et al., [2009]; cited from earlier work
rat IP3R3 = target: T2, rat IP3R3 (Rattus norvegicus, UniProt Q63269); experiment: IP3-evoked Ca^2+ release from permeabilized DT40-IP3R3 cells; type: cell-based; conditions: IP3R3
T2 construct: different for NTs (NT2 > NT1 > > NT3) and full-length IP3Rs (IP3R3 > IP3R1 ≥ IP3R2); expressed in transfected cells
Description: as §1, §2, §3

[3] = system: permeabilized DT40-IP3R1-3 cells; experiment: Ca^2+ uptake and Ca^2+ content of the intracellular stores of permeabilized DT40 cells; type: cell-based; conditions: permeabilized DT40 cells, 5 min pre-incubation
Description: Briefly, the ER was loaded with indicator by incubating cells (∼5 × 10^7 mL^−1) in the dark with Mag-fluo-4AM (20 μM) in HEPES-buffered saline (HBS) containing 0.02% (v/v) Pluronic F127 for 1 h at 22°C. […] Ca^2+-free CLM had the following composition: 2 mM NaCl, 140 mM KCl, 1 mM EGTA, 20 mM PIPES, 2 mM MgCl2, pH 7.0. Permeabilized cells were then distributed into 96-well plates (50 μL, 5 × 10^5 cells per well), centrifuged (300× g, 2 min) and used for experiments at 20°C. […] After 2 min, when the ER had loaded to steady-state with Ca^2+, IP3 was added with CPA (10 μM) to inhibit further Ca^2+ uptake. […] The timings of antagonist additions are described in the figure legends. The affinity of each competitive antagonist (pKD) was determined from the intercept on the abscissa of the Schild plot.

rat IP3R1 = target: T3, rat IP3R1 (Rattus norvegicus, UniProt P29994); experiment: IP3-evoked Ca^2+ release from permeabilized DT40-IP3R1 cells; type: cell-based; conditions: IP3R1
T3 construct: different for NTs (NT2 > NT1 > > NT3) and full-length IP3Rs (IP3R3 > IP3R1 ≥ IP3R2); expressed in transfected cells
T3 sequence (P29994 1-2735 isoform P29994-2): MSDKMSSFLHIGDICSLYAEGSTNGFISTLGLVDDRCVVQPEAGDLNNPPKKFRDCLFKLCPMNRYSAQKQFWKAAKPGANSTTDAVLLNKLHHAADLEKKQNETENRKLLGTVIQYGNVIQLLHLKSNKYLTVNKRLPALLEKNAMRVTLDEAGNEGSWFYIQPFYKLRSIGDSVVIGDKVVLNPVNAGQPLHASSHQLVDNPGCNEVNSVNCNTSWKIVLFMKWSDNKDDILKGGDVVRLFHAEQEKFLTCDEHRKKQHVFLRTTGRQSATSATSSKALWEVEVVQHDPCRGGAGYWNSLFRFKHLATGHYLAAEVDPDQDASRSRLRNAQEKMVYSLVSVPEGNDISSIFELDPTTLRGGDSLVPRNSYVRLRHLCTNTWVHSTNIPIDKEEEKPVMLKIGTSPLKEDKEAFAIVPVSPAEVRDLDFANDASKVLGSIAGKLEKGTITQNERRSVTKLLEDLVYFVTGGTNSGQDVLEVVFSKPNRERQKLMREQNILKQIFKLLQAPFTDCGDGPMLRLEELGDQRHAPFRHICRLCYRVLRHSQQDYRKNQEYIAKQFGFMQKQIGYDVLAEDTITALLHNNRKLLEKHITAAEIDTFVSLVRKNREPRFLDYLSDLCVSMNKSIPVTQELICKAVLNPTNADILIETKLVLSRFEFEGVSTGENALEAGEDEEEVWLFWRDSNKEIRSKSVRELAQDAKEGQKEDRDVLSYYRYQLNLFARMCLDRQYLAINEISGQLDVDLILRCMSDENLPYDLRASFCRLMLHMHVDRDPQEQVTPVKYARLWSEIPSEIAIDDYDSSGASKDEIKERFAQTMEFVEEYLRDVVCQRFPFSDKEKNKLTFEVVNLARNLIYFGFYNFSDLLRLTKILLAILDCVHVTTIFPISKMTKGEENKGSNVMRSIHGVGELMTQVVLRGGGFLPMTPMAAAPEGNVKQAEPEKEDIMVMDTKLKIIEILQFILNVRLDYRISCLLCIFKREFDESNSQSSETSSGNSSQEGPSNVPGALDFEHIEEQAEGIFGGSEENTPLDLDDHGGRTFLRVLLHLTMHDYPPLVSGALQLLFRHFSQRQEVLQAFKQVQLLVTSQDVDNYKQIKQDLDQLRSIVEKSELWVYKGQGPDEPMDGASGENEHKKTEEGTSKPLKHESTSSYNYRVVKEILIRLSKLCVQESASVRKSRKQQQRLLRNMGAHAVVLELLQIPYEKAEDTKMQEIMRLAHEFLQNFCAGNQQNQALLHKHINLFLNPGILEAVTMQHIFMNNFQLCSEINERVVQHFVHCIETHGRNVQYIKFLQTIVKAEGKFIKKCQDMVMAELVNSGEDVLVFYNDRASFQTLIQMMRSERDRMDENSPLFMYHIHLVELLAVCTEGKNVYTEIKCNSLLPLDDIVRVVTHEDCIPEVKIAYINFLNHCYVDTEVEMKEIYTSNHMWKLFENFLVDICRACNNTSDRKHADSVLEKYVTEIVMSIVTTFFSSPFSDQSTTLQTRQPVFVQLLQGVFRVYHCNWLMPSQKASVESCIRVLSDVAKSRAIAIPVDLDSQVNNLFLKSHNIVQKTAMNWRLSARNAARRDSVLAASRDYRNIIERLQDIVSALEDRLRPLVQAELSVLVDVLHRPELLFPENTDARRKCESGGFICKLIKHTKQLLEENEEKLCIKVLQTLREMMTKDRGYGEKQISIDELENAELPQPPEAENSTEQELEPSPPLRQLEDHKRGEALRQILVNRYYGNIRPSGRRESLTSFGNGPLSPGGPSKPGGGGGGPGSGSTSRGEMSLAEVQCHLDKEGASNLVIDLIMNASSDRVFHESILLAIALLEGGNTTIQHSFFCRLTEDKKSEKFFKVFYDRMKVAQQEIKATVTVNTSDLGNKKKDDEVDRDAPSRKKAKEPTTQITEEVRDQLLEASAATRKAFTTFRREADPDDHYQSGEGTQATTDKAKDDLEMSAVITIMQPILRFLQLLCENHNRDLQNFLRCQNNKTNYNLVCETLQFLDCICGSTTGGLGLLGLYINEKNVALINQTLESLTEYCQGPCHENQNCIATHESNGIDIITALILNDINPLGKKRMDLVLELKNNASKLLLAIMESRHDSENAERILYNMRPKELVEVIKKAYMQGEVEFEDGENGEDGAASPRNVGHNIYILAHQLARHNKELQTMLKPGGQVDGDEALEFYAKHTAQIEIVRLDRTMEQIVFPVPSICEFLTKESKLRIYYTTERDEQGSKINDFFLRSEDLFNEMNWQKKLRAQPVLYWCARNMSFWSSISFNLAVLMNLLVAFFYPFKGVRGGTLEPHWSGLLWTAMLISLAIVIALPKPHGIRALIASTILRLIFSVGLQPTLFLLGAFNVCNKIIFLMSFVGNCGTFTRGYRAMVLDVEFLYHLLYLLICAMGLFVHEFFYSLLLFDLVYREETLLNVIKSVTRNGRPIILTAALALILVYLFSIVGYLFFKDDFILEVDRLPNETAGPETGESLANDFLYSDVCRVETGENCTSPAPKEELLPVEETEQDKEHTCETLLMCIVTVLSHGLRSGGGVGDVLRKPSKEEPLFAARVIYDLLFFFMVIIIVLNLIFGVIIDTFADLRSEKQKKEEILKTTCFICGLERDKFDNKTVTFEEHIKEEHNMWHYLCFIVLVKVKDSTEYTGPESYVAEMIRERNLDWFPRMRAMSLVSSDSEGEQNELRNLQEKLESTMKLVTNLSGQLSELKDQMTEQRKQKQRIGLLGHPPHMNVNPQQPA
Description: as §1, §2, §3

HEK cells [4] = experiment: IP3-evoked Ca^2+ release from permeabilized HEK cells; type: cell-based; conditions: 5 min
Description: as §2, with “Ca^2+-free CLM had the following composition: 2 mM NaCl, 140 mM KCl, 1 mM EGTA, 20 mM PIPES, 2 mM MgCl2, pH 7.0. Permeabilized cells were then distributed into 96-well plates (50 μL, 5 × 10^5 cells per well), centrifuged (300× g, 2 min) and used for experiments at 20°C.” left out, “After 2 min, when the ER had loaded to steady-state with Ca^2+, IP3 was added with CPA (10 μM) to inhibit further Ca^2+ uptake.” left out, “Similar methods were used to measure IP3-evoked Ca^2+ release from intact or permeabilized HEK cells (Tovey et al., [2008]). The timings of antagonist additions are described in the figure legends.” left out

HEK cells [5] = experiment: Steady-state Ca^2+ content of the intracellular stores of permeabilized HEK cells; type: cell-based; conditions: 5 min
Description: as §2, with “Ca^2+-free CLM had the following composition: 2 mM NaCl, 140 mM KCl, 1 mM EGTA, 20 mM PIPES, 2 mM MgCl2, pH 7.0. Permeabilized cells were then distributed into 96-well plates (50 μL, 5 × 10^5 cells per well), centrifuged (300× g, 2 min) and used for experiments at 20°C.” left out, “After 2 min, when the ER had loaded to steady-state with Ca^2+, IP3 was added with CPA (10 μM) to inhibit further Ca^2+ uptake.” left out, “Similar methods were used to measure IP3-evoked Ca^2+ release from intact or permeabilized HEK cells (Tovey et al., [2008]). The timings of antagonist additions are described in the figure legends.” left out

cerebellar microsomes = system: cerebellar microsomes; set-up: method as in Gafni et al., [1997]; conditions: ref Gafni et al., [1997], read-out: IC50, inhibition of IP3-evoked Ca^2+ release; cited from earlier work
[6] = 5 µM, 5 min, purified (Gafni et al., 1997)
[7] = 20 µM, 7 min, purified (Gafni et al., 1997)
[8] = 20 µM, 12 min, purified (Gafni et al., 1997)
[9] = Xestospongin 20 μM, pooled 7 and 12 min
[10] = Xestospongin C 5–20 μM from either source, 5–12 min before IP3
[11] = Xestospongin 20 μM, pooled from 7 and 12 min pre-incubation
[12] = 10 µM, 5 min, purified (Gafni et al., 1997)
[13] = 10 µM, 5 min, source Calbiochem

C1CCC[C@H]2CCCN3CC[C@@H](CCCCCC[C@@H]4CCCN5CC[C@@H](CC1)O[C@@H]45)O[C@@H]23 [Xestospongin C]
ΔMax (mouse IP3R2; [6]): 0 ± 4%
ΔMax (mouse IP3R2; 5 µM, 5 min, source Calbiochem): 5 ± 6%
ΔMax (mouse IP3R2; [7]): 2 ± 2%
ΔMax (mouse IP3R2; [8]): 1 ± 2%
ΔMax (mouse IP3R2; [9]): 1 ± 1%
effect on IP3-evoked Ca^2+ release (mouse IP3R2; [10]): no significant effect
effect on Ca^2+ signals evoked by carbachol (HEK cells [1]): no significant effect
effect on carbachol-evoked Ca^2+ signals (HEK cells [2]): substantial, though incomplete, inhibition
ΔMax (rat IP3R3; [6]): 3 ± 14%
ΔpEC50 (rat IP3R3; [6]): 0.02 ± 0.09 M⁻¹
ΔMax (rat IP3R3; 5 µM, 5 min, source Calbiochem): 15 ± 7%
ΔpEC50 (rat IP3R3; 5 µM, 5 min, source Calbiochem): -0.04 ± 0.11 M⁻¹
ΔMax (rat IP3R3; [7]): 1 ± 3%
ΔpEC50 (rat IP3R3; [7]): 0.15 ± 0.02 M⁻¹
ΔMax (rat IP3R3; [8]): 2 ± 2%
ΔpEC50 (rat IP3R3; [8]): 0.10 ± 0.05 M⁻¹
ΔMax (rat IP3R3; [9]): 1 ± 2%
ΔpEC50 (rat IP3R3; [9]): 0.12 ± 0.03 M
effect on IP3-evoked Ca^2+ release (rat IP3R3; [10]): no significant effect
effect on Ca^2+ content of the stores ([3]; 5 μM purified Xestospongin C): no significant effect
ΔMax (rat IP3R1; [6]): 2 ± 2%
ΔpEC50 (rat IP3R1; 5 µM, 5 min, purified as described (Gafni et al., 1997)): -0.12 ± 0.12 M⁻¹
ΔMax (rat IP3R1; 5 µM, 5 min, source Calbiochem): 2 ± 1%
ΔpEC50 (rat IP3R1; 5 µM, 5 min, source Calbiochem): 0.09 ± 0.07 M⁻¹
ΔMax (rat IP3R1; [7]): 9 ± 3 %
ΔpEC50 (rat IP3R1; [7]): 0.08 ± 0.07 M⁻¹
ΔMax (rat IP3R1; [8]): 4 ± 3%
ΔpEC50 (rat IP3R1; [8]): 0.33 ± 0.18 M⁻¹
ΔMax (rat IP3R1; [9]): 6 ± 2 %
ΔpEC50 (rat IP3R1; [11]): 0.21 ± 0.10 M
effect on IP3-evoked Ca^2+ release (rat IP3R1; [10]): no significant effect
effect on Ca^2+ release evoked by IP3 (HEK cells [4]; Xestospongin C 5 μM): no effect
effect on Ca^2+ content of the intracellular stores (HEK cells [5]; Xestospongin C 5 μM): no effect
IC50 (cerebellar microsomes): 358 nM

O[C@@]12CCCCCC[C@H]3CCN4CCC[C@H](CCCCCC[C@H]5CCN(CCC1)[C@@H]2O5)[C@H]4O3 [Xestospongin D]
ΔMax (mouse IP3R2; [12]): 2 ± 3%
ΔpEC50 (mouse IP3R2; [12]): -0.07 ± 0.07
ΔMax (mouse IP3R2; [13]): 2 ± 4%
ΔpEC50 (mouse IP3R2; [13]): 0.25 ± 0.22
ΔMax (mouse IP3R2; [7]): 5 ± 2%
ΔpEC50 (mouse IP3R2; [7]): -0.06 ± 0.04
ΔMax (mouse IP3R2; [8]): 11 ± 5%
ΔpEC50 (mouse IP3R2; [8]): -0.23 ± 0.06
ΔMax (mouse IP3R2; [9]): 8 ± 3 %
ΔpEC50 (mouse IP3R2; [9]): −0.15 ± 0.05
ΔpEC50 (mouse IP3R2; Xestospongin 20 μM, pooled 7 and 12 min, listed as XeD): -0.15 ± 0.05
effect on Ca^2+ signals evoked by carbachol (HEK cells [1]): no significant effect
ΔMax (rat IP3R3; [12]): 8 ± 8%
ΔpEC50 (rat IP3R3; [12]): 0.16 ± 0.26 M⁻¹
ΔMax (rat IP3R3; [13]): 12 ± 1 %
ΔpEC50 (rat IP3R3; [13]): 0.03 ± 0.04 M⁻¹
ΔMax (rat IP3R3; [7]): 4 ± 2%
ΔpEC50 (rat IP3R3; [7]): 0.39 ± 0.10 M⁻¹
ΔMax (rat IP3R3; [8]): -1 ± 0%
ΔpEC50 (rat IP3R3; [8]): 0.03 ± 0.08 M⁻¹
ΔMax (rat IP3R3; [9]): 2 ± 2%
ΔpEC50 (rat IP3R3; [9]): 0.21 ± 0.10 M
effect on Ca^2+ content of the intracellular stores ([3]; 10 μM purified Xestospongin D): no effect
ΔMax (rat IP3R1; [12]): 15 ± 4 %
ΔpEC50 (rat IP3R1; [12]): -0.02 ± 0.10 M⁻¹
ΔMax (rat IP3R1; [13]): 17 ± 6 %
ΔpEC50 (rat IP3R1; [13]): 0.28 ± 0.13 M⁻¹
ΔMax (rat IP3R1; [7]): 18 ± 5 %
ΔpEC50 (rat IP3R1; [7]): 0.37 ± 0.11 M⁻¹
ΔMax (rat IP3R1; [8]): 18 ± 1 %
ΔpEC50 (rat IP3R1; [8]): 0.14 ± 0.12 M⁻¹
ΔMax (rat IP3R1; [9]): 18 ± 2 %
ΔpEC50 (rat IP3R1; [11]): 0.26 ± 0.09 M
effect on IP3-evoked Ca^2+ release (rat IP3R1; Xestospongin D 10–20 μM from either source, 5–12 min): modest, but statistically significant
effect on Ca^2+ release evoked by IP3 (HEK cells [4]; Xestospongin D 10 μM): no effect
effect on Ca^2+ content of the intracellular stores (HEK cells [5]; Xestospongin D 10 μM): no effect
